Assay results taken from US11590148B2, “Use of calcifediol in bariatric surgery patients” (OPKO IRELAND GLOBAL HOLDINGS, LTD., priority 2018, dated 2023).

How the values were obtained:
Assay type in all cases: in vivo, human
[1] = test system: patients with intractable VDI having undergone bariatric surgery; assay: Long-term efficacy study in bariatric surgery patients (52-week, ERC)
Procedure: The effectiveness of oral extended-release 25-hydroxyvitamin D3 (ERC) in raising serum total 25-hydroxyvitamin D to ≥30 ng/mL and reducing plasma iPTH by at least 30% from pre-treatement baseline is examined in a 52-week study of male and female patients aged at least 18 years, with intractable VDI, and having undergone bariatric surgery. In a randomized, double-blind controlled study, patients receive ERC or matching placebo.
Subjects are without any disease state or physical condition that might impair evaluation of safety or which would interfere with study participation, including having serum albumin ≤3.0 g/dL; and serum transaminase (alanine aminotransferase [ALT], glutamic-pyruvic transaminase [SGPT], aspartate aminotransferase [AST] or glutamic-oxaloacetic transaminase [SGOT])>2.5 times the upper limit of normal at screening.
When otherwise confirmed eligible at Visit 1, if taking more than 1,500 mg per day of elemental calcium (from diet and supplements), subjects reduce calcium use (to ≤1,500 mg per day) for the duration of the study.
When otherwise confirmed eligible at Visit 1, if taking bone metabolism therapies that may interfere with study endpoints, subjects discontinue use of these agents for the duration of the study. […]
Blood samples are collected at weekly, biweekly or monthly intervals during the pre-treatment period, the 52-week treatment period, the 6-week post-treatment FU period, and at early termination (ET), if applicable. Key parameters analyzed in the collected samples include: plasma iPTH, serum calcium (corrected for serum albumin), serum phosphorus, serum total 25-hydroxyvitamin D, serum calcifediol, serum 1,25-dihydroxyvitamin D3, and serum 24,25-dihydroxyvitamin D3 (24,25D3). Vital signs (VS), and AEs are monitored at each study visit. Other parameters monitored less frequently include brief physical examinations (PEs) and clinical laboratory tests (hematology and clinical chemistries). […] Additional parameters, including serum FGF23 and serum bone turnover markers are monitored at specified intervals. […]

[2] = test system: patients having undergone bariatric surgery (bypass of at least the duodenum); assay: Long-term efficacy study in Roux-en-Y surgery patients (one year, randomized, double-blind, vs cholecalciferol)
Procedure: The effectiveness of oral sustained-release 25-hydroxyvitamin D3 in restoring serum total 25-hydroxyvitamin D to optimal levels (>30 ng/mL) and increasing bone mineral density, is examined in a one year study of adult male and female patients having undergone bariatric surgery for weight reduction, wherein the surgery included bypass of at least the duodenum. In a randomized, double-blind controlled study, patients are treated with sustained-release 25-hydroxyvitamin D3 or cholecalciferol.
A total of 200 subjects participate in this study. All subjects participating in this study are aged 18 years or older, have bone mineral density T-scores between −2.0 and −4.0 as assessed by dual energy x-ray absorptiometry (DEXA), and have serum total 25-hydroxyvitamin D levels less than 30 ng/mL at the time of enrollment. All subjects receive a multivitamin therapy including calcium (up to 1,000 mg daily) and either cholecalciferol (3000 IU daily) or multiple sustained-release 25-hydroxyvitamin D3 (softgel capsules containing 30 μg 25-hydroxyvitamin D3), and abstain from receiving other Vitamin D therapy and significant sun exposure at study start and continuing through study termination.
After 3 months, the daily 25-hydroxyvitamin D3 softgel capsule dosage is maintained unchanged in patients whose serum total 25-hydroxyvitamin D is between 50 and 90 ng/mL, and increased by one capsule in patients whose serum total 25-hydroxyvitamin D is below 50 ng/mL.
Serum total 25-hydroxyvitamin D, plasma iPTH, serum calcium, serum phosphorus, urinary calcium, urinary phosphorus, and urinary creatinine are measured from the day of surgery, and at monthly intervals. Bone mineral density at four sites (total hip, femoral neck, ⅓radius, and lumbar spine) is determined at quarterly intervals by DEXA.

[3] = test system: patients who are candidates for Roux-en-Y Surgery; assay: Efficacy study in Roux-en-Y surgery patients (6-month)
Procedure: The effectiveness of oral sustained-release 25-hydroxyvitamin D3 in restoring serum total 25-hydroxyvitamin D to optimal levels (>30 ng/mL) and reducing parathyroid hormone level, is examined in a 6-month study of adult male and female patients who are candidates for Roux-en-Y Surgery for weight reduction. In a controlled study, patients are treated with sustained-release 25-hydroxyvitamin D3 (softgel capsules containing 25-hydroxyvitamin D3).
A total of 60 subjects participate in this study, all of whom have serum total 25-hydroxyvitamin D levels less than 30 ng/mL at the time of enrollment and serum intact parathyroid hormone levels greater than 70 pg/mL as evidence of SHPT. All subjects receive a multivitamin therapy including calcium (up to 1,000 mg daily) and cholecalciferol (3000 IU daily) following surgery, and abstain from receiving other Vitamin D therapy and significant sun exposure. Serum total 25-hydroxyvitamin D, serum intact parathyroid hormone, serum calcium, serum phosphorus, urinary calcium, urinary phosphorus, and urinary creatinine are measured from the day of surgery, and at monthly intervals following surgery.
After 2 months, the daily calcium dosage is maintained unchanged, and the cholecalciferol supplement is discontinued, while daily administration of sustained-release 25-hydroxyvitamin D3 (softgel capsules containing 30 μg 25-hydroxyvitamin D3) is initiated and continued for four months.

[4] = after 12 months of treatment, DEXA
[5] = once stable dosing has been achieved
[6] = months 0-2, cholecalciferol 3000 IU daily
[7] = time zero and months 1 and 2, cholecalciferol 3000 IU daily following surgery

For `C=C1CC[C@H](O)C/C1=C/C=C1\CCC[C@]2(C)[C@@H]([C@H](C)CCCC(C)C)CC[C@@H]12` [cholecalciferol], the “change in bone mineral density” value [1, 4] was “insignificant changes or reductions”, the incidence of hypocalcemia [1, 5] was “occur more frequently” and the “severity / occurrence of secondary hyperparathyroidism” value [1, 5] was “occur more frequently”. The “change in bone mineral density” value [2, 4] was “insignificant changes or reductions”, the incidence of hypocalcemia [2, 5] was “occur more frequently” and the “severity / occurrence of secondary hyperparathyroidism” value [2, 5] was “occur more frequently”. The “change in mean serum total 25-hydroxyvitamin D level following surgery” value [3, 6] was “only a moderate increase”, the “change in serum intact parathyroid hormone level following surgery” value [3, 6] was “no significant difference” and the “group mean serum intact parathyroid hormone level” value [3, 7] was “greater than 70 pg/mL”. The “group mean serum total 25-hydroxyvitamin D level” value [3, 7] was “less than 30 ng/mL”.
